Experimental data: patent publication US7417062B2, “Substituted arylamides” (ChemoCentryx, Inc., priority 2004, dated 2008)
pIC50: −log10 of the molar value.

The molecules below were run against T1, CCXCKR2 receptor (Homo sapiens, UniProt P25106) (assay: Displacement of 125I-labeled SDF-1 from the CCXCKR2 receptor (radioligand binding, determination of IC50 values)). Conditions: MCF-7 and/or MDA-MB-435S cells expressing CCXCKR2; 125I SDF-1; 3 hr at 4° C.; read-out: Activity (ability to displace 125I SDF-1 from CCXCKR2).
T1 construct: host or cells: MCF-7 (endogenous) and/or MDA-MB-435S transfected with hRDC1 in pcDNA3.1(+)
T1 sequence (P25106 whole entry): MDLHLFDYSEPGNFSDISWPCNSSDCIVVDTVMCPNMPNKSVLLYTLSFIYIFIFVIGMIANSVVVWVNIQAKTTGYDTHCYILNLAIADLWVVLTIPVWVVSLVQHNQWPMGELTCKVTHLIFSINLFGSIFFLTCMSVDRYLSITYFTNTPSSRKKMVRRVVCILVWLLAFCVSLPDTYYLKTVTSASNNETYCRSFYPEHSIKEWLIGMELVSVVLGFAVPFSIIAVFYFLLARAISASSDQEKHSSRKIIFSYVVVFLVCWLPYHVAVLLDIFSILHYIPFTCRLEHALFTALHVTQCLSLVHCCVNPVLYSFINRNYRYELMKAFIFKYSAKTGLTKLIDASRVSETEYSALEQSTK
Description: The ability of the compounds to displace the labeled chemokine from the CCXCKR2 receptor sites at multiple concentrations was then determined with the screening process.
Compounds that were deemed effective modulators were able to displace at least 50% of the SDF-1 from the CCXCKR2 receptor at concentrations at or below 10 micromolar (μM) and more preferably at concentrations at or below 2 micromolar. At present, especially preferred compounds can displace at least 50% of the SDF-1 from the CCXCKR2 receptor at concentrations at or below 500 nM. Exemplary compounds that met these criteria are reproduced in Table B below. All compounds were prepared as described in the Examples above, or by related methods substituting readily available starting materials.
Reagents and Cells. ^125I-labeled SDF-1 was purchased from Perkin-Elmer Life Sciences, Inc. (Boston, Mass.). The MCF-7 (adenocarcinoma; mammary gland) cell line was obtained from the American Type Culture Collection (Manassas, Va.) or and was cultured in DMEM (Mediatech, Herndon, Va.) supplemented with 10% fetal bovine serum (FBS) (HyClone Logan, Utah) and bovine insulin (0.01 mg/mL) (Sigma, St. Louis, Mo.) at 37° C. in a humidified incubator at a 5% CO2/air mixture. CCXCKR2 transfected MDA-MB-435S were produced as described below. MDA-MB-435S human breast cancer line, was purchased from ATCC, and cultured in DMEM/10% FBS medium. The complete coding sequence of the gene encoding CCXCKR2 (a.k.a.CXCR7, hRDC1), was isolated from MCF-7 cells using μMACs mRNA isolation kit (Miltenyi Biotec, Auburn, Calif.). DNA contamination was removed by DNase digestion via RNeasy columns (Qiagen, Inc., Valencia, Calif.) and cDNA was generated using GeneAmp RNA PCR Core Kit (Applied Biosystems, Foster City, Calif.). PCR of cDNA samples was performed using Taq PCR Master Mix kit (Qiagen, Inc.) and hRDC1 primers harboring 5′ and 3′ Not I sites (hRDC1F 5′-[…]-3′ (SEQ ID NO:1), hRDC1R 5′-[…]-3′ (SEQ ID NO:2)) Not I digested PCR product was ligated into Not I digested pcDNA3.1(+)(Invitrogen, Carlsbad, Calif.) and screened for orientation and sequence confirmed. Plasmid DNA was then isolated from overnight bacterial cultures by Maxiprep (Qiagen, Inc.). Plasmid DNA (10 μg) was added to MDA-MB-435s cells and cells were electroporated (0.22 kV, 960 uF) via Gene Pulser (Biorad laboratories, Hercules, Calif.). 48 hr post-electroporation, cells were transferred to selection medium (1000 ug/ml G418).
Binding Analysis. Target compounds were tested to determine their ability to bind with CCXCKR2 sites on MCF-7 and/or MDA-MB-435S cells. Efficiency-maximized radioligand binding using filtration protocols as described in Dairaghi D J, et al., HHV8-encoded vMIP-I selectively engages chemokine receptor CCR5. Agonist and antagonist profiles of viral chemokines., J. Biol. Chem. 1999 Jul. 30; 274(31): 21569-74 and Gosling J, et al., Cutting edge: identification of a novel chemokine receptor that binds dendritic cell-and T cell-active chemokines including ELC, SLC, and TECK., J. Immunol. 2000 Mar. 15; 164(6):2851-6 was used.
In these assays, MCF-7 and/or MDA-MB-435S cells were interrogated with the target compounds and the ability of these compounds to displace ^125I radiolabeled SDF-1 was assessed using the protocol described in Dairaghi and Gosling. The target compounds were added to the plate to the indicated concentration and were then incubated with cells followed by the addition of radiolabeled chemokine (^125I SDF-1) for 3 hr at 4° C. in the following binding medium (25 mM HEPES, 140 mM NaCl, 1 mM CaCl2, 5 mM MgCl2 and 0.2% bovine serum albumin, adjusted to pH 7.1). All assays were then incubated for 3 hrs at 4° C. with gentle agitation. Following incubation in all binding assays, reactions were aspirated onto PEI-treated GF/B glass filters (Packard) using a cell harvester (Packard) and washed twice (25 mM HEPES, 500 mM NaCl, 1 mM CaCl2, 5 mM MgCl2, adjusted to pH 7.1). […]

Row | Structure (SMILES) | pIC50
1 | COc1cc(C(=O)N(Cc2cc3ccccc3c[n+]2[O-])C[C@@H]2C[C@@H]3CCCC[C@@H]3N2)cc2c1OC(C)(C)O2 [Example 65, 7-Methoxy-2,2-dimethyl-benzo[1,3]dioxole-5-carboxylic acid [(2S,3aS,7aS)-1-(octahydro-indol-2-yl)methyl]-(2-oxy-isoquinolin-3-ylmethyl)-amide] | > 5.70
2 | COc1cc(C(=O)N(Cc2ccc3ccccc3[n+]2[O-])C[C@@H]2CCCN2C2CCC2)cc2c1OC(C)(C)O2 [Example 69, 7-Methoxy-2,2-dimethyl-benzo[1,3]dioxole-5-carboxylic acid ((S)-1-cyclobutyl-pyrrolidin-2-ylmethyl)-(1-oxy-quinolin-2-ylmethyl)-amide] | > 5.00
3 | COc1cc(C(=O)N(Cc2cc3ccccc3nn2)C[C@@H]2CCCN2C2CCC2)cc2c1OC(C)(C)O2 [Example 74, 7-Methoxy-2,2-dimethyl-benzo[1,3]dioxole-5-carboxylic acid cinnolin-3-ylmethyl-((S)-1-cyclobutyl-pyrrolidin-2-ylmethyl)-amide] | > 5.70
4 | COc1cc(C(=O)N(CCC2CCCN2C)Cc2csc3ccccc23)cc(OC)c1OC (centres unmarked) [Example 12, N-Benzo[b]thiophen-3-ylmethyl-3,4,5-trimethoxy-N-[2-(1-methyl-pyrrolidin-2-yl)-ethyl]-benzamide] | > 5.70
5 | CCOC(=O)c1ccc(-c2cccc(N(C[C@@H]3CCCN3CC3CC3)C(=O)c3ccc(OC)c(OC)c3)c2)cc1 [Example 36, (S)-3′-[(1-Cyclopropylmethyl-pyrrolidin-2-ylmethyl)-(3,4-dimethoxy-benzoyl)-amino]-biphenyl-4-carboxylic acid ethyl ester] | > 5.00
6 | COc1cc(C(=O)N(CCCN2CCCCC2C)c2ccc3ccccc3c2)cc(OC)c1OC (centres unmarked) [Example 20, 3,4,5-Trimethoxy-N-[3-(2-methyl-piperidin-1-yl)-propyl]-N-naphthalen-2-yl-benzamide] | > 5.70
7 | COc1cc(C(=O)N(CCC2CCCN2C)Cc2nc3ccccc3n2C)cc(OC)c1OC (centres unmarked) [Example 14, 3,4,5-Trimethoxy-N-(1-methyl-1H-benzoimidazol-2-ylmethyl)-N-[2-(1-methyl-pyrrolidin-2-yl)-ethyl]-benzamide] | > 5.00
8 | COc1ccc(C(=O)N(Cc2cc3ccccc3s2)C[C@@H]2CCCN2CC2CCCCC2)cc1OC [Example 30, N-Benzo[b]thiophen-2-yl methyl-(S)—N-(1-cyclohexylmethyl-pyrrolidin-2-ylmethyl)-3,4-dimethoxy-benzamide] | > 6.30
9 | COc1ccc(C(=O)N(C[C@@H]2CCCN2CC2CC2)c2cccc(-c3ccc(N(C)C)cc3)c2)cc1OC [Example 37, (S)—N-(1-Cyclopropylmethyl-pyrrolidin-2-ylmethyl)-N-(4′-dimethylamino-biphenyl-3-yl)-3,4-dimethoxy-benzamide] | > 5.00
10 | COc1cc(C(=O)N(Cc2cc3ccccc3cn2)C[C@@H]2CCCN2CC2CNC2)cc2c1OC(C)(C)O2 [Example 39, 7-Methoxy-2,2-dimethyl-benzo[1,3]dioxole-5-carboxylic acid ((S)-1-azetidin-3-ylmethyl-pyrrolidin-2-ylmethyl)-isoquinolin-3-ylmethyl-amide] | > 5.70
11 | COc1cc(C(=O)N(Cc2cnc3ccccc3c2)C[C@@H]2CCCN2C2CCC2)cc2c1OC(C)(C)O2 | > 5.00
12 | COc1cc(C(=O)N(CCCN2CCCCC2C)Cc2ncc(-c3ccccc3)s2)cc(OC)c1OC (centres unmarked) [Example 19, 3,4,5-Trimethoxy-N-[3-(2-methyl-piperidin-1-yl)-propyl]-N-(5-phenyl-thiazol-2-ylmethyl)-benzamide] | > 5.70
13 | COc1ccc(C(=O)N(C[C@@H]2CCCN2CC2CCCCC2)c2ccc(-c3ccccc3)cc2)cc1OC | > 5.00
14 | COc1cc(C(=O)N(CCC2CCCN2C)Cc2cccc3ccccc23)cc(OC)c1OC (centres unmarked) [Example 6, 3,4,5-Trimethoxy-N[2-(1-methyl-pyrrolidin-2-yl)-ethyl]-N-naphthalen-1-ylmethyl-benzamide] | > 5.70

The remaining lines, values ahead:

Row | pIC50 | Structure (SMILES)
15 | > 6.30 | COc1cc(C(=O)N(Cc2nc(-c3ccccc3)sc2Cl)C[C@@H]2C[C@@H]3CCCC[C@@H]3N2)cc2c1OC(C)(C)O2 [Example 79, 7-Methoxy-2,2-dimethyl-benzo[1,3]dioxole-5-carboxylic acid (5-chloro-2-phenyl-thiazol-4-ylmethyl)-[(2S,3aS,7 aS)-1-(octahydro-indol-2-yl)methyl]-amide]
16 | > 6.30 | COc1cc(C(=O)N(Cc2cc3ccccc3o2)C[C@@H]2CCCN2CC2CCCCC2)cc(OC)c1OC [Example 4, N-Benzofuran-2-ylmethyl-N—(S)-(1-cyclohexylmethyl-pyrrolidin-2-ylmethyl)-3,4,5-trimethoxy-benzamide]
17 | > 6.30 | COc1cc(C(=O)N(C[C@@H]2CCCN2CC2CC2)c2cccc(-c3ccccc3)c2)ccc1OC(F)F [Example 32, N-Biphenyl-3-yl-(S)—N-(1-cyclopropylmethyl-pyrrolidin-2-ylmethyl)-4-difluoromethoxy-3-methoxy-benzamide]
18 | > 6.30 | COc1ccc(C(=O)N(Cc2cc3ccccc3o2)C[C@@H]2CCCN2CC2CCCCC2)cc1OC [Example 3, N-benzofuran-2-ylmethyl-N—(S)-(1-cyclohexylmethyl-pyrrolidin-2-ylmethyl)-3,4-dimethoxy-benzamide]
19 | > 6.30 | COc1cc(C(=O)N(Cc2csc(-c3ccccc3)n2)C[C@@H]2CCCN2)cc2c1OC(C)(C)O2 [Example 55, 7-Methoxy-2,2-dimethyl-benzo [1,3]dioxole-5-carboxylic acid (2-phenyl-thiazol-4-ylmethyl)-pyrrolidin-2-ylmethyl-amide]
20 | > 6.30 | COc1cc(C(=O)N(Cc2ccc3cccnc3n2)C[C@@H]2C[C@@H]3CCCC[C@@H]3N2)cc2c1OC(C)(C)O2 [Example 42, 7-Methoxy-2,2-dimethyl-benzo[1,3]dioxole-5-carboxylic acid [1,8]naphthyridin-2-ylmethyl-[(2S,3aS,7aS)-1-(octahydro-indol-2-yl)methyl]-amide]
21 | > 6.30 | COc1cc(C(=O)N(Cc2ccc3cc(Cl)ccc3n2)C[C@@H]2C[C@@H]3CCCC[C@@H]3N2)cc2c1OC(C)(C)O2 [Example 73, 7-Methoxy-2,2-dimethyl-benzo[1,3]dioxole-5-carboxylic acid (6-chloro-quinolin-2-ylmethyl)-[(2S,3aS,7aS)-1-(octahydro-indol-2-yl)methyl]-amide]
22 | > 6.30 | COCCOCCN1CCC[C@H]1CN(Cc1ccc2ccccc2n1)C(=O)c1cc(OC)c2c(c1)OC(C)(C)O2 [Example 47, 7-Methoxy-2,2-dimethyl-benzo[1,3]dioxole-5-carboxylic acid {(S)-1-[2-(2-methoxy-ethoxy)-ethyl]-pyrrolidin-2-ylmethyl}-quinolin-2-ylmethyl-amide]
23 | > 6.30 | COc1cc(C(=O)N(Cc2cc3ccccc3s2)C[C@@H]2C[C@@H]3CCCC[C@@H]3N2)cc2c1OC(C)(C)O2 [Example 61, 7-Methoxy-2,2-dimethyl-benzo[1,3]dioxole-5-carboxylic acid benzo[b]thiophen-2-ylmethyl-[(2S,3aS,7aS)-1-(octahydro-indol-2-yl)methyl]-amide]
